According to patent publication US7414138B2, “Benzoxazole and benzodiazole UV-A sunscreens” (DSM IP Assets B.V., priority 2002, dated 2008):

Legend:
[1] = Photostability, irradiation in high dilution with 150 W Hg-lamp (on-line Hg-lamp/HPLC); type: physicochemical; details: for photostability (in words): irradiated in high dilution with a Hg-lamp 150 W from Heraeus
Experimental: The photostability is measured in an on-line system Hg-lamp/HPLC, using a 150 W Hg-lamp of Heraeus with Pyrex filter (2.3 mm) and a Teflon capillary tube with 0.3 mm inside diameter and a total length of 10 m. 3.6. mg of the sample is dissolved in 16 ml of MeOH and 10 μl of this solution injected. The degradation products are not separated. UV-absorption at a wavelength of 358 nm of the irradiated solution is measured periodically up to 14 minutes and the result is compared with the corresponding photostability of butyl methoxy dibenzoylmethane. The product was detected in >90%, indicating photostability, whereas only 16% of butyl methoxy dibenzoylmethane could be detected after 14 minutes of irradiation.
Alternatively, the measurement is performed according to the protocol described in the International Journal of Cosmetic Science 18, 167-177 (1996).

[2] = Solubility measurement in cosmetic solvents (saturated solution, UV spectroscopy); details: for solubility in Crodamol DA: Crodamol DA (diisopropyl adipate); for solubility in Crodamol DA / solubility in Cétiol LC: room temperature, 18 hours; for solubility in Cétiol LC: Cétiol LC (cocoyl caprylate caprate)
Experimental: An excess of the UV sunscreen was placed in a flask, containing Cétiol LC (cocoyl caprylate caprate) and Crodamol DA (diisopropyl adipate), respectively. The suspension was mixed and treated in an ultrasound bath for 10 minutes. After standing at room temperature for 18 hours, the solution over the remaining crystals was filtered through a millipore microfilter (pore size of 0.45 μm). The concentration of this saturated solution was determined by means of UV spectroscopy in comparison with a calibration curve.

| SMILES | product detected after irradiation ([1]; MeOH solution, 150 W Hg-lamp with Pyrex filter, UV-absorption at 358 nm, after 14 minutes of irradiation) | melting point | solubility in Crodamol DA [2] | solubility in Cétiol LC [2] | photostability (in words) [1] | solubility in Cétiol LC (in words) ([2]; Cétiol LC) | solubility in Crodamol DA (in words) ([2]; Crodamol DA) |
| --- | --- | --- | --- | --- | --- | --- | --- |
| CCOC(=O)C(=Cc1ccc(-c2nc3ccccc3o2)cc1)C(=O)OCC [Example 1, 2-(4-Benzoxazol-2-yl-benzylidene)-malonic acid diethyl ester] | > 90% | 99 to 102 °C | 11% | 4.5% |  |  |  |
| CCCCC(CC)COC(=O)/C(C#N)=C/c1ccc(-c2nc3cc(C(C)(C)C)ccc3o2)cc1 (stereo not shown) [Example 2, 2-Cyano-3-{4-[5-tert.-butyl-benzoxazol-2-yl]-phenyl}-acrylic acid 2-ethylhexyl ester] |  | 80 to 81 °C | 7.4% | 3.8% | photostable |  |  |
| CCCCOC(=O)C(=Cc1ccc(-c2nc3ccccc3o2)cc1)C(=O)OCCCC [Example 3, 2-(4-Benzoxazol-2-yl-benzylidene)-malonic acid dibutyl ester] |  |  |  |  | photostable | miscible |  |
| CCCCC(CC)COC(=O)/C(C#N)=C/c1ccc(-c2nc3ccccc3o2)cc1 (stereo not shown) [Example 4, 2-Cyano-3-{4-benzoxazol-2-yl-phenyl}-acrylic acid 2-ethylhexyl ester] |  | 84 to 85 °C | 2.8% | 1.6% | photostable after E/Z isomerisation |  |  |
| CCOC(=O)C(=Cc1ccc(-c2nc3ccc(O)cc3o2)cc1)C(=O)OCC [Example 6, 2-(4-[6-Hydroxy-benzoxazol-2-yl]-benzylidene)-malonic acid diethyl ester] |  | 153 to 155 °C | 1.6% |  | photostable |  |  |
| CCCCC(CC)COc1ccc2nc(-c3ccc(C=C(C(=O)OCC)C(=O)OCC)cc3)oc2c1 (stereo not shown) [Example 7] |  | 50 to 52 °C |  | 10.2% | photostable |  |  |
| CCOCCOCCOc1ccc2nc(-c3ccc(C=C(C(=O)OCC)C(=O)OCC)cc3)oc2c1 [Example 8] |  | 43 to 45 °C |  | 4.6% | photostable |  |  |
| C=C(COc1ccc2nc(-c3ccc(C=C(C(=O)OCC)C(=O)OCC)cc3)oc2c1)[Si](C)(O[Si](C)(C)C)O[Si](C)(C)C [Example 9] |  |  |  |  | excellent photostability |  | unlimited solubility |
